Laboratory results from patent US20140309419A1, “METHOD FOR ENHANCING THE THERMAL STABILITY OF IONIC COMPOUNDS” (Danmarks Tekniske Universite, priority 2011, published 2014).
Marks after values point to notes of the source that are not given here.

Assays:
[1] = Thermal stability by TGA, inflection point method (TA2950 TGA, 5° C./min, dried air); assay type: physicochemical; settings: not supported/neat
Source text: (§1) The term “upper operating temperature” as used herein refers to the highest temperature to which the ionic compound can be heated without undergoing thermal degradation. This temperature is usually and routinely measured by Thermo Gravimetric Analysis (TGA) and/or Differential Scanning calorimetry (DSC).

[2] = Thermal stability by TGA, T5% onset method (Mettler-Toledo TGA/DSC, 5° C./min, nitrogen); assay type: physicochemical; settings: not supported/neat
Source text: as §1

[3] = Thermal stability by TGA, supported vs. unsupported, evaluation method not marked
Protocol: To test for such influence, adsorption experiments with butylmethylimidazolium acetate [BMIM][OAc] on four different porous silica types was carried out (FIG. 7a, 7b). The silicas had the following pore diameters: PG2000 (pore diameter 2000 Å), PG500 (pore diameter 500 Å), PG75 (pore diameter 75 Å) and MCM-41 (pore diameter 50 Å).
The silicas had the following pore diameters: PG2000 (pore diameter 2000 Å), PG500 (pore diameter 500 Å) and PG75 (pore diameter 75 Å).
Thermal stability was measured by using thermogravimetric analysis (TGA), with isocratic heating at 5° C. min^−1 under an inert nitrogen and/or dried air atmosphere. The decomposition temperatures were determined from both the T5% onset (onset temperature for 5% decomposition) in an isocratic TGA experiment, and from the inflection point (temperature at the inflection point of TGA curve, which indicates the point where the degradation rate is maximum). For T5% onset measurements, thermal stability was determined in a Mettler-Toledo Star^e TGA/DSC unit by heating from 25° C. to 800° C. with a heating rate of 5° C./min under nitrogen. For inflection point measurements, thermal stability was determined using a TA2950 TGA unit by heating from 25° C. to 800° C. with a heating rate of 5° C./min under dried air.

[4] = 10% (wt/wt) on PG75 silica (pore diameter 75 Å)
[5] = 10% (wt/wt) on PG500 silica (pore diameter 500 Å)
[6] = 10% (wt/wt) on PG2000 silica (pore diameter 2000 Å)

SMILES | Thermal Stability (inflection point) [1] | enhancement of thermal stability vs. unsupported [3, 4] | enhancement of thermal stability vs. unsupported [3, 5] | enhancement of thermal stability vs. unsupported [3, 6] | further results
CCCCC(CC)COC(=O)CC(C(=O)OCC(CC)CCCC)S(=O)(=O)O (centres unmarked) [Dioctylsulfosuccinic Acid [3], Dioctylsulfosuccinic Acid] | 161.86^b ° C. |  |  |  | 
CC(C)Cc1ccc(C(C)C(=O)O)cc1 (centres unmarked) [Ibuprofene (free acid), Ibuprofene] |  |  |  |  | Thermal Stability (T5% onset) [2]: 154.7^a ° C.
CC[N+](CC)(CC)CC.O=C(O)CNCP(=O)([O-])O [Tetraethylammonium Glyphosate [5], Tetraethylammonium Glyphosate] | 149.76^b ° C. |  |  |  | 
CCCCCCCCCCCCCCCC[N+](C)(C)C.Nc1nc2c(ncn2COCCO)c(=O)[n-]1 [Trimethylhexadecylammonium acyclovir [2], Trimethylhexadecylammonium Acyclovir] | 188.60^b ° C. |  |  |  | 
CCCCn1cc[n+](C)c1.[Cl-] [[BMIM][Cl], butylmethylimidazolium chloride] |  | no enhancement of thermal stability | no enhancement of thermal stability | no enhancement of thermal stability | 
CC(=O)[O-].CCCCn1cc[n+](C)c1 [[BMIM][OAc], butylmethylimidazolium acetate] |  | significant enhancement of the thermal stability | no enhancement of thermal stability | no enhancement of thermal stability | enhancement of thermal stability vs. unsupported ([3]; 10% (wt/wt) on MCM-41 silica (pore diameter 50 Å)): significant enhancement of the thermal stability
